# Measured values published in patent publication US20260335323A1, “CHIMERIC MOLECULE” (UCL Business Ltd, priority 2023, published 2026).
# How the values were obtained:
# Type in all cases: cell-based, human
# phospho-CHK1 (S345) = experiment: Western blot, phospho-CHK1 in RPE1-hTERT-cMYC-ER cells (replication stress); details: 72 h; NZ-175 at 100 nM with 4-OHT
# Experimental: (§1) FIG. 15. NZ-175 rescues oncogenic c-MYC induced replication stress (100 nM, 72 h) (A) Western blot of RPE1-hTERT-cMYC-ER treated with 4-OHT and/or NZ-175 at 100 nM for 72 hours. 4-OHT treatment simulates oncogenic c-MYC-induced replication stress, observed by upregulation of phospho-CHK1 (S345), pRPA (S4/S8) and γH2AX. […] Quantification of blot is shown for pCHK1 […] (B), pRPA (S4/S8) (C), and YH2AX (D). n=3, mean±SEM, *p<0.05, ** p<0.01, *** p<0.001.
# (§2) Cells were homogenised in protein lysis buffer consisting of 0.1 M Tris pH 8.0, 0.1 M NaCl, 5% glycerol, IGEPAL® CA-630 (#18896. Sigma-Aldrich) and 5 mM EDTA, 0.1 M N-ethyl maleimide (ThermoFisher, #23030) and protease inhibitor (Cell Signalling Technologies, #5871). Protein concentrations were determined using the BCA assay to ensure equal loading. […] The membranes were immunoblotted with primary antibodies, overnight at 4° C. […]
# (§3) Membranes were then incubated with horseradish peroxidase (HRP)-conjugated secondary antibodies (Rabbit #7074 and Mouse #7076) purchased from Cell Signalling Technologies for 1 hour and the HRP signal was detected using EZ-ECL Enhanced Chemiluminescence Detection Kit for HRP (#20-500-500, Sartorius), and imaged with an Alliance Q9 Advanced (UVITec). […]
# (§4) To see if NZ-175 could rescue this phenotype, RPE1-hTERT-cMYC-ER cells treated with 4-OHT and/or 100 nM NZ-175 for 72 h were analysed by Western blotting (FIG. 15A). […]
# γH2AX = experiment: Western blot, γH2AX in RPE1-hTERT-cMYC-ER cells (replication stress); details: 72 h; NZ-175 at 100 nM with 4-OHT
# Experimental: as §1, §2, §3, §4
# pRPA (S4/S8) = experiment: Western blot, pRPA (S4/S8) in RPE1-hTERT-cMYC-ER cells (replication stress); details: 72 h; NZ-175 at 100 nM with 4-OHT
# Experimental: as §1, §2, §3, §4
# c-MYC controlled genes = experiment: RT-qPCR of c-MYC controlled genes in CAL51 cells; details: 100 nM, 72 hours
# Experimental: FIG. 11. RT-qPCR quantification of expression of c-MYC controlled genes in CAL51 triple negative breast cancer cell line treated with DMSO, 100 nM (+)-JQ1 or 100 nM NZ-147 for 72 hours. […] MDM2 (A) and CCNE (B) are controlled by cMYC in oncogenic settings, PAICS (C) is a putative target of c-MYC, and eIF4E (D) is a known target of cMYC. n=3, *p<0.05, ** p<0.01, *** p<0.001.
# RNA was extracted with the Qiagen RNeasy Mini kit following manufacturers protocol. RT-qPCR SYBR assay was carried out with Mesa Blue following manufacturers instructions, 80 ng RNA per well, experimental triplicates, BioRad CTX Connect qPCR machine. RNA levels were normalized to GAPDH. Experiments were done in biological triplicate. The primers used were as follows:
# The levels of c-MYC controlled genes (determined using RT-qPCR) in CAL51 triple negative breast cancer cell line after treatment with DMSO, 100 nM (+)-JQ1 or 100 nM NZ-147 for 72 hours is shown in FIG. 11. In particular MDM2 (FIG. 11A) and CCNE (FIG. 11B) are controlled by cMYC in oncogenic settings, PAICS (FIG. 11C) is a putative target of c-MYC, and elF4E (FIG. 11D) is a known target of c-MYC.
# A549 cells [1] = experiment: Cell viability assay (CellTiter Glo), A549; details: A549, increasing concentrations
# Experimental: (§5) A549 and H1299 cells were seeded in OptiPlate-384 well plates and treated with increasing concentrations of (+)-JQ1 or NZ-147 from 0 μM to 10 µM in Example 8 and with increasing concentrations of NZ-175 from 0 µM to 10 µM in Example 9. Cells were treated for 120 h before using the luciferase based CellTiter Glo assay (Promega) to measure cell viability.
# (§6) Cell viability assay was performed in A549 and H1299 cells, which were treated with different concentrations of (+)-JQ1 or NZ-147 at 100 nM for 72 hours (FIG. 10B).
# (§7) Cell viability assay was performed in A549 and H1299 cells, which were treated with different concentrations of NZ-147 at 100 nM for 72 hours (FIG. 16B).
# H1299 cells [2] = experiment: Cell viability assay (CellTiter Glo), H1299; details: H1299, increasing concentrations
# Experimental: as §5, §6, §7
# p-Ub (S65) [3] = experiment: Western blot, p-Ub (S65) in WT fibroblasts; details: 10 μM FCCP, 2 h
# Experimental: (§8) FIG. 7. ULKTACs restore mitophagic activity in PINK-null PD patient fibroblasts (A) Western blot of patient derived fibroblasts, healthy control vs. PINK null, treated with […] NZ-65 or NZ-66 for 18 h or 10 μM FCCP for 2 h and probed for total Ub, pUb(S65), Mfn2 and b-Actin with quantification for the changes in the pUB (S65): Total Ub ratio shown in (B) and Mfn2 (C), respectively normalised to b-Actin. (D) Representative immunofluorescence of primary human fibroblasts isolated from wild type controls and PINK-null Parkinson's disease patients, treated with 10 µM FCCP, 1 μM NZ-65 or 1 μM NZ-66 and immunostained for TOM20 and ULK1; counterstained with Alexa 488 and Alexa 568 antibodies. Nuclei stained with Hoechst 33342. The quantification of these immunofluorescence experiments is shown in (E). Data shown are mean±SEM, n=3, *** p<0.001, two-way ANOVA with Tukey's multiple comparisons test.
# as §2
# p-Ub (S65) [4] = experiment: Western blot, p-Ub (S65) in PINK-null PD patient fibroblasts
# Experimental: as §8, §2
# A549 cells [5] = experiment: Colony formation assay, A549; details: A549, 100 nM, 72 hours
# Experimental: (§9) A549 and H1299 cells were seeded in 12 well plates at approximately 100 cells per well. In Example 8, wells were treated with DMSO, (+)-JQ1 or NZ-147. In Example 9, cells were treated with DMSO or NZ-175. Colonies were allowed to form over 120 h. Cells were fixed and stained with crystal violet staining solution, prepared in 70% ethanol.
# (§10) A colony formation assay was performed in A549 and H1299 cells, which were treated with DMSO, (+)-JQ1 or NZ-147 at 100 nM for 72 hours and stained with crystal violet (FIG. 10A).
# (§11) A colony formation assay was performed in A549 and H1299 cells, which were treated with DMSO or NZ-175 at 100 nM for 72 hours and stained with crystal violet (FIG. 16A).
# MAX = experiment: Western blot, MAX in RPE1-hTERT-cMYC-ER cells; details: 100 nM, 72 h, 4-OHT and/or compound
# Experimental: (§12) FIG. 12. c-MYC and MAX degradation enabled by NZ-175. (A) Schematic representation of hTERT-cMYC-ER expressing RPE1 cells. Treatment with 4-hydroxytamoxifen (4-OHT) translocates c-MYC-ER from the cytoplasm into the nucleus, simulating oncogenic c-MYC. (B) Western blot of RPE1-hTERT-cMYC-ER treated with 4-OHT and/or 100 nM NZ-175 for 72 hours. Quantification of c-MYC-ER (C), c-MYC (D) and MAX (E).
# as §2, §3
# (§13) RPE1-hTERT-cMYC-ER cells were treated with 4-OHT and/or 100 nM NZ-175 for 72 h and analysed by Western blotting (FIG. 12A). The levels of c-MYC-ER (FIG. 12B), c-MYC (FIG. 12C) and MAX (FIG. 12D) were quantified.
# c-MYC [6] = experiment: c-MYC immunofluorescence in hTERT-cMYC-ER expressing RPE1 cells; details: 100 nM, 72 hours, 4-OHT and/or compound
# Experimental: FIG. 9. (A) Schematic representation of hTERT-cMYC-ER expressing RPE1 cells. Treatment with 4-hydroxytamoxifen (4-OHT) translocates c-MYC-ER from the cytoplasm into the nucleus, simulating oncogenic c-MYC. (B) Immunofluorescence images of hTERT-cMYC-ER expressing RPE1 cells treated with DMSO, (+)-JQ1 or NZ-147 at 100 nM for 72 hours, each with or without 4-OHT.
# RPE1-hTERT-c-MYC-ER cells were seeded in a 384 well PerkinElmer CellCarrier Ultra plate. In Example 8, cells were treated for 72 hours with DMSO, (+)-JQ1±4-OHT, or, NZ-147±4-OHT. In Example 9, cells were treated for 72 hours with 4-OHT, NZ-175, both, or neither. Thereafter, in both Examples 8 and 9, cells were fixed with 4% paraformaldehyde (PFA) in phosphate buffered saline (PBS) and blocked with 10% FBS and 0.1% Triton in PBS. Plates were incubated at 4° C. overnight, with 1:500 rabbit anti-c-MYC (D84C12) rabbit monoclonal antibody (#5605, Cell Signalling Technologies). The following day, plates were incubated with 1:1000 goat anti-rabbit Alexa 488 (ThermoFisher Scientific, #A-11008) and 1.62 μM Hoechst 33342 at room temperature for 1 hour before imaging. Excitation and emission spectra for each channel are as follows: Hoechst 33342=405/435-480 nm, Alexa 488=488/500-550 nm. Images were acquired at 40× and 63× magnification with water immersion lens.
# H1299 cells [7] = experiment: Colony formation assay, H1299; details: H1299, 100 nM, 72 hours
# Experimental: as §9, §10, §11
# c-MYC [8] = experiment: Western blot, c-MYC in RPE1-hTERT-cMYC-ER cells; details: 100 nM, 72 h, 4-OHT and/or compound
# Experimental: as §12, §2, §3, §13
compound,measurement,setting,value
"4-hydroxytamoxifen [4-OHT, reference compound]","phospho-CHK1 (S345), replication stress",phospho-CHK1 (S345),upregulation
same,"γH2AX, replication stress",γH2AX,upregulation
same,"pRPA (S4/S8), replication stress",pRPA (S4/S8),upregulation
"Cc1sc2c(c1C)C(c1ccc(Cl)cc1)=N[C@@H](CC(=O)OC(C)(C)C)c1nnc(C)n1-2 [(+)-JQ1, reference compound]","expression of c-MYC controlled genes (MDM2, CCNE, PAICS, eIF4E)",c-MYC controlled genes,reduces the expression of c-MYC controlled genes
same,percentage of live cells,A549 cells [1],dose-dependent decrease in the percentage of live cells
same,percentage of live cells,H1299 cells [2],dose-dependent decrease in the percentage of live cells
N#CC(C#N)=NNc1ccc(OC(F)(F)F)cc1 [FCCP],p-Ub (S65) levels,p-Ub (S65) [3],substantial increase in p-Ub (S65) levels
same,p-Ub (S65) levels,p-Ub (S65) [4],does not occur in the PINK-null cells
"C/C=C/C(=O)NCc1ccc(C(=O)Nc2ccccc2Oc2ccc(OCC(=O)NCCOCCOCCOCCn3cc(COc4ccc([C@@H](NC(=O)Nc5cc(C(F)(F)F)cc(C(F)(F)F)c5)C(=O)Nc5ccc(F)cc5F)cc4)nn3)cc2)cc1 [NZ-175, (R)-4-(crotonylamidomethyl)-N-(2-(4-((14-(4-((4-(1-(3-(3,5-bis(trifluoromethyl)phenyl)ureido)-2-((2,4-difluorophenyl)amino)-2-oxoethyl)phenoxy)methyl)-1H-1,2,3-triazol-1-yl)-2-oxo-6,9,12-trioxa-3-azatetradecyl)oxy)phenoxy)phenyl) benzamide]","phospho-CHK1 (S345), replication stress",phospho-CHK1 (S345),rescues this phenotype
same,colony formation,A549 cells [5],Fewer colonies formed
same,degradation of MAX,MAX,proximal degradation of MAX
same,c-MYC degradation (time-course immunofluorescence),c-MYC [6],c-MYC degradation
same,"γH2AX, replication stress",γH2AX,rescues this phenotype
same,"pRPA (S4/S8), replication stress",pRPA (S4/S8),rescues this phenotype
same,colony formation,H1299 cells [7],Fewer colonies formed
same,degradation of c-MYC,c-MYC [8],initiates degradation of c-MYC
